Test results reported in patent US10239832B2, “N-(1-hydroxy-3-(pyrrolidinyl)propan-2-yl)pyrrolidine-3-carboxamide derivatives as glucosylceramide synthase inhibitors” (BIOMARIN PHARMACEUTICAL INC., priority 2013, dated 2019).

Biological target: T1, GCS (Canis lupus familiaris, UniProt A0A8I3MXG6)
T1 construct: endogenous in cells; host or cells: MDCK (Madin-Darby canine kidney) cells, whole-cell lysate
T1 sequence (A0A8I3MXG6 1-394): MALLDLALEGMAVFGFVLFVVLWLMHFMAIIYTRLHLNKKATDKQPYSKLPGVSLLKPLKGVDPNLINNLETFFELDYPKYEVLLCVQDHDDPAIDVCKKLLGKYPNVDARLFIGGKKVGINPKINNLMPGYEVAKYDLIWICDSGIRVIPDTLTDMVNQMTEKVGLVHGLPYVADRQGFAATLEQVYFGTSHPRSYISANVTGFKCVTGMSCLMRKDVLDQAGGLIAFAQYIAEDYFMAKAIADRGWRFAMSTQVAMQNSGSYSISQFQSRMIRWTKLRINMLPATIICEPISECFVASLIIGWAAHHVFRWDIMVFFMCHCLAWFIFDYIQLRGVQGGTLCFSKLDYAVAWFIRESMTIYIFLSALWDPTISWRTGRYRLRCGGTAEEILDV
Assay: GCS enzymatic assay (MDCK cell lysate, NBD-ceramide to glucosylceramide, LC/MS)
Assay type: biochemical, canine
Details: Table 2; class symbols A, B, C; the table does not say which of the assays; read-out: Data Range (IC50 values)
Protocol: This assay was modified based on the study by Larsen et al. (J. Lipid Res. 2011, 53, 282). Madin-Darby canine kidney (MDCK) cell lysate was prepared using M-PER Mammalian Protein Extraction Reagent (Thermal Scientific) in the presence of a protease inhibitor cocktail (Roche). Protein concentration was determined using BCA assay kit (Pierce). […] 0.1% DMSO was used as mock treatment or control. The reaction was terminated by adding 100 μL acetonitrile solution and subjected to LC/MS analysis.
The quantitative analysis of NBD-Ceramide and glucosylceramide was performed on a Shimadzu ultra-fast liquid chromatography (Shimadzu, Japan) coupled with API 4000 triple quadrupole mass spectrometer (Applied Biosystems, Concord, Ontario, Canada). Sample separation was conducted on a Waters Xbridge™ BEH130 C18, 100 mm×4.6 mm i.d, 3.5 μm (Milford, Mass., USA). The mobile phase consisted of water and acetonitrile supplemented with 0.1% formic acid (v/v). The flow rate was 1.0 mL/min. The initial mobile phase was 20% acetonitrile and was ramped in a linear fashion to 50% acetonitrile in 0.4 min. From 0.4 to 1.5 min, the gradient was ramped to 98% acetonitrile, and then was held at […] until 8.0 min. Acetonitrile was reset to 20% in 1.5 min, and maintained until 10.0 min. The total run time was 10.0 min. The MS/MS detection was performed in ESI positive mode. The mass transition of NBD-Ceramide was m/z 576.36→558.40 under the collision energy of 15 V, and the mass transition of glucosylceramide was m/z 738.35→558.40 under 21V collision energy. The cell lysate was diluted with equal volume of acetonitrile. Aliquots of 50 μL diluted samples were added to 1.5 mL tubes, and 100 μL of acetonitrile containing internal standard (100 ng/mL tolbutamide) were added for protein precipitation. The mixture were vortexed and then centrifuged at 13000 rpm for 10 min. 70 μL of supernatant were mixed with 140 μL of H2O and the final solution were injected for LC/MS/MS analysis and IC50's and/or percent inhibitions calculated.

IC50 [nM]	SMILES
1 to 30	O=C(N[C@H](CN1CCCC1)[C@H](O)c1ccc(OC2CC2)c(Cl)c1)C1CCN(c2ccc(Cl)cc2)C1 (stereo in doubt) [Compound 3, (S)-N-((1R,2R)-1-(3-chloro-4-cyclopropoxyphenyl)-1-hydroxy-3-(pyrrolidin-1-yl)propan-2-yl)-1-(4-chlorophenyl)pyrrolidine-3-carboxamide]
1 to 30	O=C(N[C@H](CN1CCCC1)[C@H](O)c1ccc2c(c1)OCCO2)C1CCN(c2ccc(Cl)cc2Cl)C1 (stereo in doubt) [Compound 12, (R)-1-(2,4-dichlorophenyl)-N-((1R,2R)-1-(2,3-dihydrobenzo[b][1,4]dioxin-6-yl)-1-hydroxy-3-(pyrrolidin-1-yl)propan-2-yl)pyrrolidine-3-carboxamide]
1 to 30	O=C(N[C@H](CN1CCCC1)[C@H](O)c1ccc2c(c1)OCCO2)C1CCN(c2ccc3cc(F)ccc3c2)C1 (stereo in doubt) [Compound 14, (S)-N-((1R,2R)-1-(2,3-dihydrobenzo[b][1,4]dioxin-6-yl)-1-hydroxy-3-(pyrrolidin-1-yl)propan-2-yl)-1-(6-fluoronaphthalen-2-yl)pyrrolidine-3-carboxamide]
30 to 100	N#Cc1ccc(N2CCC(C(=O)N[C@H](CN3CCCC3)C(O)c3ccc(OC4CC4)c(Cl)c3)C2)cc1 (stereo in doubt) [Compound 152C, (R)-N-((1S,2R)-1-(3-chloro-4-cyclopropoxyphenyl)-1-hydroxy-3-(pyrrolidin-1-yl)propan-2-yl)-1-(4-cyanophenyl)pyrrolidine-3-carboxamide]
1 to 30	O=C(N[C@H](CN1CCCC1)[C@H](O)c1ccc2c(c1)OCCO2)[C@@H]1CCN(c2ccc(Cl)cc2)C1 [Compound 1, (R)-1-(4-chlorophenyl)-N-((1R,2R)-1-(2,3-dihydrobenzo[b][1,4]dioxin-6-yl)-1-hydroxy-3-(pyrrolidin-1-yl)propan-2-yl)pyrrolidine-3-carboxamide]
1 to 30	O=C(N[C@H](CN1CCCC1)[C@H](O)c1ccc2c(c1)OCCO2)C1CCN(c2ccc(Cl)cc2)C1 (stereo partly drawn) [Compound 1C, 1-(4-chlorophenyl)-N-((1R,2R)-1-(2,3-dihydrobenzo[b][1,4]dioxin-6-yl)-1-hydroxy-3-(pyrrolidin-1-yl)propan-2-yl)pyrrolidine-3-carboxamide]
30 to 100	O=C(N[C@H](CN1CCCC1)[C@H](O)c1ccc2c(c1)OCCO2)[C@H]1CCN(c2ccc(Cl)cc2)C1 [Compound 1D, (S)-1-(4-chlorophenyl)-N-((1R,2R)-1-(2,3-dihydrobenzo[b][1,4]dioxin-6-yl)-1-hydroxy-3-(pyrrolidin-1-yl)propan-2-yl)pyrrolidine-3-carboxamide]
1 to 30	O=C(N[C@H](CN1CCCC1)[C@H](O)c1cc(F)c2c(c1)OCCO2)[C@@H]1CCN(c2ccc(Cl)cc2)C1 [Compound 2, (R)-1-(4-chlorophenyl)-N-((1R,2R)-1-(8-fluoro-2,3-dihydrobenzo[b][1,4]dioxin-6-yl)-1-hydroxy-3-(pyrrolidin-1-yl)propan-2-yl)pyrrolidine-3-carboxamide]
1 to 30	O=C(N[C@H](CN1CCCC1)[C@H](O)c1cc(F)c2c(c1)OCCO2)C1CCN(c2ccc(Cl)cc2)C1 (stereo partly drawn) [Compound 2A, 1-(4-chlorophenyl)-N-((1R,2R)-1-(8-fluoro-2,3-dihydrobenzo[b][1,4]dioxin-6-yl)-1-hydroxy-3-(pyrrolidin-1-yl)propan-2-yl)pyrrolidine-3-carboxamide]
30 to 100	O=C(N[C@H](CN1CCCC1)[C@H](O)c1ccc(OC2CC2)c(Cl)c1)C1CCN(c2ccc(Cl)cc2)C1 (stereo partly drawn) [Compound 3A, N-((1R,2R)-1-(3-chloro-4-cyclopropoxyphenyl)-1-hydroxy-3-(pyrrolidin-1-yl)propan-2-yl)-1-(4-chlorophenyl)pyrrolidine-3-carboxamide]

Same assay, conditions: Table 2; class symbols D, E, F, NA (not active); the table does not say which of the assays

Data Range (% inhibition)	SMILES
F (1-49% (or less than 50%))	O=C(N[C@H](CN1CCCC1)[C@H](O)c1ccc(OC2CC2)c(Cl)c1)C1CCN(c2ccc(Cl)cc2)C1 (stereo in doubt) [Compound 3B, (R)-N-((1R,2R)-1-(3-chloro-4-cyclopropoxyphenyl)-1-hydroxy-3-(pyrrolidin-1-yl)propan-2-yl)-1-(4-chlorophenyl)pyrrolidine-3-carboxamide]
D (75-100%)	O=C(N[C@H](CN1CCCC1)[C@H](O)c1ccc2c(c1)OCCO2)C1CCN(c2ccc(Cl)c(Cl)c2)C1 (stereo in doubt) [Compound 8, (R)-1-(3,4-dichlorophenyl)-N-((1R,2R)-1-(2,3-dihydrobenzo[b][1,4]dioxin-6-yl)-1-hydroxy-3-(pyrrolidin-1-yl)propan-2-yl)pyrrolidine-3-carboxamide]
E (50-74% (or less than 75%))	O=C(N[C@H](CN1CCCC1)[C@H](O)c1ccc2c(c1)OCCO2)C1CCN(c2ccc(Cl)c(Cl)c2)C1 (stereo in doubt) [Compound 8D, (S)-1-(3,4-dichlorophenyl)-N-((1R,2R)-1-(2,3-dihydrobenzo[b][1,4]dioxin-6-yl)-1-hydroxy-3-(pyrrolidin-1-yl)propan-2-yl)pyrrolidine-3-carboxamide]
F (1-49% (or less than 50%))	O=C(N[C@H](CN1CCCC1)[C@H](O)c1ccc2c(c1)OCCO2)C1CCN(c2ccc(Cl)cc2Cl)C1 (stereo in doubt) [Compound 12D, (S)-1-(2,4-dichlorophenyl)-N-((1R,2R)-1-(2,3-dihydrobenzo[b][1,4]dioxin-6-yl)-1-hydroxy-3-(pyrrolidin-1-yl)propan-2-yl)pyrrolidine-3-carboxamide]
F (1-49% (or less than 50%))	O=C(N[C@H](CN1CCCC1)[C@H](O)c1ccc2c(c1)OCCO2)C1CCN(c2ccc3cc(F)ccc3c2)C1 (stereo in doubt) [Compound 14D, (R)-N-((1R,2R)-1-(2,3-dihydrobenzo[b][1,4]dioxin-6-yl)-1-hydroxy-3-(pyrrolidin-1-yl)propan-2-yl)-1-(6-fluoronaphthalen-2-yl)pyrrolidine-3-carboxamide]
E (50-74% (or less than 75%))	CC(C)Oc1ccc(C(O)[C@@H](CN2CCCC2)NC(=O)[C@H]2CCN(c3ccc(F)cc3)C2)cn1 (stereo in doubt) [Compound 31B, (S)-1-(4-fluorophenyl)-N-((1S,2R)-1-hydroxy-1-(6-isopropoxypyridin-3-yl)-3-(pyrrolidin-1-yl)propan-2-yl)pyrrolidine-3-carboxamide]
F (1-49% (or less than 50%))	O=C(NC(CN1CCCC1)[C@H](O)c1cc(F)c2c(c1)OCCO2)[C@H]1CCN(c2ccc3ccccc3n2)C1 (stereo in doubt) [Compound 68C, (S)-N-((1R,2S)-1-(8-fluoro-2,3-dihydrobenzo[b][1,4]dioxin-6-yl)-1-hydroxy-3-(pyrrolidin-1-yl)propan-2-yl)-1-(quinolin-2-yl)pyrrolidine-3-carboxamide]
F (1-49% (or less than 50%))	O=C(N[C@H](CN1CCCC1)[C@H](O)c1cc(F)c2c(c1)OCCO2)[C@H]1CCN(c2ccc(Cl)cc2)C1 [Compound 2B, (S)-1-(4-chlorophenyl)-N-((1R,2R)-1-(8-fluoro-2,3-dihydrobenzo[b][1,4]dioxin-6-yl)-1-hydroxy-3-(pyrrolidin-1-yl)propan-2-yl)pyrrolidine-3-carboxamide]
F (1-49% (or less than 50%))	O=C(N[C@H](CN1CCCC1)[C@H](O)c1ccc2c(c1)OCCO2)[C@@H]1CCN(CC2(O)CCOCC2)C1 [Compound 5, (R)-N-((1R,2R)-1-(2,3-dihydrobenzo[b][1,4]dioxin-6-yl)-1-hydroxy-3-(pyrrolidin-1-yl)propan-2-yl)-1-((4-hydroxytetrahydro-2H-pyran-4-yl)methyl)pyrrolidine-3-carboxamide]
F (1-49% (or less than 50%))	O=C(N[C@H](CN1CCCC1)[C@H](O)c1ccc2c(c1)OCCO2)C1CCN(CC2(O)CCOCC2)C1 (stereo partly drawn) [Compound 5D, N-((1R,2R)-1-(2,3-dihydrobenzo[b][1,4]dioxin-6-yl)-1-hydroxy-3-(pyrrolidin-1-yl)propan-2-yl)-1-((4-hydroxytetrahydro-2H-pyran-4-yl)methyl)pyrrolidine-3-carboxamide]
